Measured values published in patent US20150133456A1, “FLUOROERGOLINE DERIVATIVES AND USES THEREOF” (MAP PHARMACEUTICALS, INC., priority 2012, published 2015).
pEC50, pIC50: −log10 of the molar value.

Assays:
human 5-HT2B receptor [1] = target: T1, human 5-HT2B receptor (Homo sapiens, UniProt P41595); test: Aequorin assay, antagonist activity at 5-HT2B; assay type: cell-based; settings: reference agonist at its EC80; read-out: IC50, 5-HT2B antagonism
T1 construct: host or cells: CHO-K1 coexpressing mitochondrial apoaequorin
T1 sequence (P41595 whole entry): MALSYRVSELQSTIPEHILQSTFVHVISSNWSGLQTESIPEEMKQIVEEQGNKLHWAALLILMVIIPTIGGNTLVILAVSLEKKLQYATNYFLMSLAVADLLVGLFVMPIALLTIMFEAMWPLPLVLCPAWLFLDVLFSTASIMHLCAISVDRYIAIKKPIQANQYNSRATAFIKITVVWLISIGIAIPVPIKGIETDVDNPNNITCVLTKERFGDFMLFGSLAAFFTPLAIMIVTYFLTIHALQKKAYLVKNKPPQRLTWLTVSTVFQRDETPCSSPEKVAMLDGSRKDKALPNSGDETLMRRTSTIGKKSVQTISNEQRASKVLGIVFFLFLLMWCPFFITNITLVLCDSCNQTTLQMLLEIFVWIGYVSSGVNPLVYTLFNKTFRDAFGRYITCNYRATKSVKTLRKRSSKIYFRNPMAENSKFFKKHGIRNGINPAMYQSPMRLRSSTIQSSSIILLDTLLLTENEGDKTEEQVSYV
Protocol: Percentage inhibition values were determined for 2-CF3 dihydroergotamine on the 5-HT2B receptor.

D2 receptor = target: T2, D2 receptor (Homo sapiens, UniProt P14416); test: Agonist activity at the D2 receptor; assay type: cell-based; settings: read-out: EC50, D2 receptor agonism
T2 construct: expressed in transfected cells
T2 sequence (P14416 whole entry): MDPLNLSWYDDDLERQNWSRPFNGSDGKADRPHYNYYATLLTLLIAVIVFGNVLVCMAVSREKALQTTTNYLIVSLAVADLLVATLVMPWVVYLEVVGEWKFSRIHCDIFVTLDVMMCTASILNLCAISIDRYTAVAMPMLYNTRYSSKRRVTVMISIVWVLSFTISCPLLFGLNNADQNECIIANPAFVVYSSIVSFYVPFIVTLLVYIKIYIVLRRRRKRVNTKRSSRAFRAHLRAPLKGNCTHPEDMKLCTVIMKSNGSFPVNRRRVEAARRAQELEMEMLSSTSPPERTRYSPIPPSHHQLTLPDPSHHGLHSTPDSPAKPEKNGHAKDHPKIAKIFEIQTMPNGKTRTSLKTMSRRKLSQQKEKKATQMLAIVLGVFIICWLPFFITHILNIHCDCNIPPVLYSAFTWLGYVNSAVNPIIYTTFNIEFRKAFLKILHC
Protocol: The assay was performed analogously to the assay described in Example 4.

[2] = Metabolism in human liver microsomes; settings: 1 μM, 0.2 mg protein/mL, 0 to 60 minutes
Protocol: Metabolism of dihydroergotamine (DHE) and 2-CF3 DHE was evaluated in human liver microsomes. DHE mesylate and 2-CF3 DHE mesylate (1 μM each) were incubated separately with human liver microsomes (0.2 mg protein/mL) in triplicate at 37° C. in 0.2 mL (final volume) incubation buffer (50 mM potassium phosphate buffer, pH 7.4, 3 mM MgCl2 and 1 mM EDTA, pH7.4) with or without cofactor, NADPH-generating system. The NADPH-generating system consisted of 1 mM NADP, pH 7.4, 5 mM glucose-6-phosphate, pH 7.4 and 1 unit/mL glucose-6-phosphate dehydrogenase. DHE was added to the incubation mixtures in water. 2-CF3-DHE was added to incubation mixtures in 50:50 (v:v) acetonitrile:water. A low level of acetonitrile in the incubation was maintained to avoid any solvent effects on enzyme activity (typically at 0.5% or lower). Reactions were initiated by the addition of the NADPH-generating system and were terminated at 0, 15, 30 and 60 minutes after initiation by the addition of […], of stop reagent (acetonitrile) containing two internal standards (4′-hydroxydiclofenac-d4 and 1′-hydroxymidazolam-d4, 200 and 50 ng/mL in the final stopped incubation, respectively). The samples were then centrifuged and the supernatant fractions were analyzed by LC/MS/MS to quantify the formation of 8′-OH-DHE (metabolite) in the DHE samples and DHE and 8′-OH-DHE in the 2-CF3-DHE samples.

human 5-HT2B receptor [3] = target: T1, human 5-HT2B receptor; test: Aequorin assay, agonist activity at 5-HT2B; assay type: cell-based; settings: reference agonist; read-out: EC50, 5-HT2B agonism
Protocol: Percentage activation values were determined for 2-CF3 dihydroergotamine at the 5-HT2B receptor.

Structure (SMILES): Cc1cc(NC(=O)Nc2ccc3c(ccn3C)c2)sn1 [SB204741, reference compound]
- pIC50 (human 5-HT2B receptor [1]): 7.54

Structure (SMILES): CN1C[C@H](C(=O)N[C@]2(C)O[C@@]3(O)[C@@H]4CCCN4C(=O)[C@H](Cc4ccccc4)N3C2=O)C[C@@H]2c3cccc4[nH]cc(c34)C[C@H]21 [dihydroergotamine, reference compound]
- pEC50 (D2 receptor): 8.08
- metabolism by human liver microsomes in the presence of NADPH [2]: extensively metabolized

Structure (SMILES): CC(N)Cc1c[nH]c2ccc(O)cc12 (stereo not drawn) [α-methyl-5-HT, reference compound]
- pEC50 (human 5-HT2B receptor [3]): 9.00
